Experimental data from the supplement of paper PMC10627819.

Experiments:
S. pneumoniae D39V [1] = assay: fitness (endpoint OD595 vs no drug) (fraction); higher = more growth
In short: (§1)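 Fitness is computed from the optical density at which cultures reach stationary phase, divided by the robust mean of no-drug control wells. Any value above 1 is set to 1. Cultures started at OD595 0.01 in 384-well plates with TSB, LB Lennox or CY at 37 °C, and OD595 was read every 30 min for 14 h against a first-reading background.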

S. aureus Newman [2] = assay: as above
In short: as §1

S. aureus DSM 20231 [3] = assay: as above
In short: as §1

B. subtilis 168 [4] = assay: as above
In short: as §1

S. pneumoniae D39V [5] = assay: Bliss interaction score (quartile over a dose matrix) (fitness difference); higher = more antagonism (negative = synergy)
In short: (§2)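 Each plate was normalised to the robust mean of its own no-drug wells, using OD595 at entry into stationary phase, with values capped at 1. This normalised growth is the fitness value. The Bliss score is the difference between observed and product-expected fitness, with single-drug fitness inferred from the combination data and quartiles taken over technical, biological and donor/recipient replicates.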

S. aureus Newman [6] = assay: as above
In short: as §2

S. aureus DSM 20231 [7] = assay: as above
In short: as §2

B. subtilis 168 [8] = assay: as above
In short: as §2
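Wherever Bliss interaction score (quartile over a dose matrix) is given: first quartile when negative (synergy) and third quartile when positive (antagonism).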

CCCCCCCCCC(=O)N[C@@H](Cc1c[nH]c2ccccc12)C(=O)N[C@H](CC(N)=O)C(=O)N[C@@H](CC(=O)O)C(=O)N[C@@H]1C(=O)NCC(=O)N[C@@H](CCCN)C(=O)N[C@@H](CC(=O)O)C(=O)N[C@H](C)C(=O)N[C@@H](CC(=O)O)C(=O)NCC(=O)N[C@H](CO)C(=O)N[C@@H]([C@H](C)CC(=O)O)C(=O)N[C@@H](CC(=O)c2ccccc2N)C(=O)O[C@@H]1C [Daptomycin] + CCN(CC)CCOC(=O)c1ccc(N)cc1 [Procaine]
fitness
Conditions | first compound 0.125 µg/mL | first compound 0.25 µg/mL | first compound 0.5 µg/mL | first compound 1 µg/mL | first compound 2 µg/mL | first compound 4 µg/mL
B. subtilis 168 [4], partner 85.5 µg/mL | 0.873 | 0.946 | 0.864 | – | – | –
B. subtilis 168 [4], partner 171 µg/mL | 0.9 | 0.898 | 0.799 | – | – | –
B. subtilis 168 [4], partner 342 µg/mL | 0.874 | 0.836 | 0.854 | – | – | –
S. aureus DSM 20231 [3], partner 85.5 µg/mL | 0.912 | 0.913 | 0.931 | 0.956 | 0.774 | –
S. aureus DSM 20231 [3], partner 171 µg/mL | ≥ 1 | ≥ 1 | ≥ 1 | 0.873 | 0.822 | –
S. aureus DSM 20231 [3], partner 342 µg/mL | 0.995 | 0.989 | ≥ 1 | 0.953 | 0.808 | –
S. aureus Newman [2], partner 85.5 µg/mL | ≥ 1 | ≥ 1 | ≥ 1 | – | – | –
S. aureus Newman [2], partner 171 µg/mL | 0.984 | ≥ 1 | ≥ 1 | – | – | –
S. aureus Newman [2], partner 342 µg/mL | 0.989 | 0.98 | ≥ 1 | – | – | –
S. pneumoniae D39V [1], partner 85.5 µg/mL | – | – | – | 0.994 | 0.961 | 0.945
S. pneumoniae D39V [1], partner 171 µg/mL | – | – | – | 0.98 | 0.97 | 0.951
S. pneumoniae D39V [1], partner 342 µg/mL | – | – | – | 0.942 | 0.906 | 0.893

B. subtilis 168 [4], first compound 1 µg/mL, one replicate
Conditions | fitness
partner 85.5 µg/mL | 0.717
partner 171 µg/mL | 0.685
partner 342 µg/mL | 0.682

Conditions | Bliss interaction score
B. subtilis 168 [8] | -0.0699
S. aureus DSM 20231 [7] | 0.0381
S. aureus Newman [6] | 0.0445
S. pneumoniae D39V [5] | 0.0859
